{"source": "patent US8673908B2", "about": "“Kynurenine production inhibitor” (Kyowa Hakko Kirin Co., Ltd., priority 2008, dated 2014)", "key": {"[1]": {"tested_on": "T cells", "settings": "in the presence of IDO-expressing cancer cells and dendritic cells; cited from earlier work"}, "[2]": {"tested_on": "mouse melanoma cells", "settings": "cited from earlier work"}, "[3]": {"tested_on": "allogeneic pregnant mice", "settings": "cited from earlier work"}, "[4]": {"tested_on": "kynurenine production", "settings": "competes with tryptophan; cited from earlier work"}, "[5]": {"tested_on": "kynurenine production in IFN-γ-treated KATO-III cells", "assay": "Inhibitory activity on kynurenine production (Test Example 1)", "format": "cell-based", "settings": "Homo sapiens, IFN-γ treatment, culture for 96 hours, read-out: IC50 value, inhibition of kynurenine production", "how_it_was_run": "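Read-out is absorbance at 480 nm of medium treated with trichloroacetic acid, then p-dimethylaminobenzaldehyde, to quantify kynurenine. DMSO-only wells with and without IFN-γ serve as references. Cells were KATO-III, 2,000 per well, 96 h at 37 °C/5% CO2 with compound (DMSO ≤0.1%) and IFN-γ at 31.25 ng/mL in the added suspension.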"}, "[6]": {"tested_on": "4T1 mouse breast cancer cells", "assay": "Antitumor effect in mice transplanted with 4T1 cells (Test Example 2)", "format": "in vivo, BALB/c mice", "settings": "for T/C: oral, once or twice daily", "procedure": "5-week-old BALB/c mice (male, supplied from CLEA Japan, Inc.) were purchased. After quarantine and stabilization, mice which favorably gained their weight and had no apparent abnormalities were used in the test. The test started from 6 weeks of age. The mice were housed in groups of 6 mice per plastic cage with free access to commercial solid feed and water in a breeding room in which the room temperature was 19° C. to 25° C., the humidity was 30 to 70% and the light was kept on for 12 hours a day (7:00 a.m. to 7:00 p.m.).\nThe abdominal hair of the BALB/c mice was shaved on the day before the test. Transplantation was performed by subcutaneous injection of a suspension containing 1×10^6 4T1 mouse breast cancer cells in 100 μL of phosphate buffered saline (PBS) from the shaved region of each mouse.\nWhen the tumor volume reached 30 to 80 mm^3, the mice were divided into groups so that the average tumor volume of each group was equal. The test compound was suspended in 0.5% (w/v) methylcellulose 400 cP (manufactured by Wako Pure Chemical Industries, Ltd.), and the suspension was orally administered to each mouse of the corresponding group once or twice daily. The tumor volume was calculated using the formula (a×b^2)/2 (a: tumor major axis, b: tumor minor axis). The tumor volume (V) was measured twice or three times a week, and the tumor growth rate (V/V0) was calculated by division of the tumor volume (V) by the tumor volume on the day of the first administration (V0). The T/C (treatment group/control group) value was calculated by division of the V/V0 value of the test compound treatment group by the V/V0 value of the control group, based on which the antitumor effect was evaluated.\nStatistical analysis was performed on the tumor volumes of the control group and the treatment group, using student's T-test. If the p value was <0.05, we considered the difference significant."}, "[7]": {"settings": "Day 4 and Day 7 after administration"}}, "note": "Like-named read-outs stand apart in the source and are kept apart here."}
{"smiles": "Cn1cc(C[C@H](N)C(=O)O)c2ccccc21", "note": "[Compound 1-MT, 1-methyltryptophan]", "values": [{"measurement": "suppression of T cell proliferation", "setting": "[1]", "result": "cancelled"}, {"measurement": "antitumor effect", "setting": "[2]; immunodeficient mice", "result": "disappears"}, {"measurement": "antitumor effect", "setting": "[2]; mice bearing mouse melanoma cells", "result": "shows an antitumor effect"}, {"measurement": "MHC-restricted rejection", "setting": "[3]", "result": "induces major histocompatibility complex (MHC)-restricted rejection"}, {"measurement": "effect on kynurenine production", "setting": "[4]", "result": "inhibits kynurenine production"}]}
{"smiles": "CC(Oc1nc2ccccc2nc1NS(=O)(=O)c1cccc(Cl)c1Cl)c1cccnc1", "note": "(stereo not shown) [Compound 16, 2,3-dichloro-N-{3-[1-(pyridin-3-yl)ethoxy]quinoxalin-2-yl}-benzenesulfonamide]", "values": [{"measurement": "IC50", "setting": "[5]", "result": "< 1000", "unit": "nM"}, {"measurement": "T/C", "setting": "[6]; Day 3, dose 100 mg/kg", "result": 0.62}, {"measurement": "tumor growth inhibition (in words)", "setting": "[6]; Day 3 and Day 7 after administration", "result": "significantly inhibited tumor growth"}, {"measurement": "T/C", "setting": "[6]; Day 7, dose 100 mg/kg", "result": 0.58}]}
{"smiles": "O=S(=O)(Nc1nc2ccccc2nc1OC(c1cccnc1)C(F)(F)F)c1cccc(Cl)c1Cl", "note": "(stereo not shown) [Compound 20, 2,3-dichloro-N-{3-[2,2,2-trifluoro-1-(pyridin-3-yl)ethoxy]-quinoxalin-2-yl}benzenesulfonamide]", "values": [{"measurement": "IC50", "setting": "[5]", "result": "< 1000", "unit": "nM"}, {"measurement": "T/C", "setting": "[6]; Day 4, dose 10 mg/kg", "result": 0.68}, {"measurement": "tumor growth inhibition (in words)", "setting": "[6]; [7]", "result": "significantly inhibited tumor growth"}, {"measurement": "T/C", "setting": "[6]; Day 7, dose 10 mg/kg", "result": 0.69}]}
{"smiles": "CCCS(=O)(=O)Nc1nc2ccccc2nc1OC(c1cccnc1)C(F)(F)F", "note": "(stereo not shown) [Compound 179, N-{3-[2,2,2-trifluoro-1-(pyridin-3-yl)ethoxy]quinoxalin-2-yl}propane-1-sulfonamide]", "values": [{"measurement": "IC50", "setting": "[5]", "result": "< 1000", "unit": "nM"}, {"measurement": "T/C", "setting": "[6]; Day 4, dose 0.1 mg/kg", "result": 0.76}, {"measurement": "tumor growth inhibition (in words)", "setting": "[6]; [7]", "result": "significantly inhibited tumor growth"}, {"measurement": "T/C", "setting": "[6]; Day 7, dose 0.1 mg/kg", "result": 0.50}]}
{"smiles": "CCCS(=O)(=O)Nc1nc2ccccc2nc1OC(C(F)(F)F)C1(C)CCN(C(C)=O)CC1", "note": "(stereo not shown) [Compound 356, N-{3-[2,2,2-trifluoro-1-(1-acetyl-4-methylpiperidin-4-yl)-ethoxy]quinoxalin-2-yl}propane-1-sulfonamide]", "values": [{"measurement": "IC50", "setting": "[5]", "result": "< 1000", "unit": "nM"}]}
{"smiles": "CCCS(=O)(=O)Nc1nc2ccccc2nc1OC(C(F)(F)F)C1(C)CCN(S(C)(=O)=O)CC1", "note": "(stereo not shown) [Compound 357, N-{3-[2,2,2-trifluoro-1-(1-methanesulfonyl-4-methylpiperidin-4-yl)ethoxy]quinoxalin-2-yl}propane-1-sulfonamide]", "values": [{"measurement": "IC50", "setting": "[5]", "result": "< 1000", "unit": "nM"}]}
{"smiles": "CCCS(=O)(=O)Nc1cc2ccccc2nc1OC(c1cccnc1)C(F)(F)F", "note": "(stereo not shown) [Compound 358, N-{2-[2,2,2-trifluoro-1-(pyridin-3-yl)ethoxy]quinolin-3-yl}propane-1-sulfonamide]", "values": [{"measurement": "IC50", "setting": "[5]", "result": "1000 to 10000", "unit": "nM"}]}
{"smiles": "O=S(=O)(Nc1cc2ccccc2nc1OC(c1cccnc1)C(F)(F)F)c1ccccc1Cl", "note": "(stereo not shown) [Compound 360, 2-chloro-N-{2-[2,2,2-trifluoro-1-(pyridin-3-yl)ethoxy]-quinolin-3-yl}benzenesulfonamide]", "values": [{"measurement": "IC50", "setting": "[5]", "result": "1000 to 10000", "unit": "nM"}]}
{"smiles": "O=S(=O)(Nc1nc2ccncc2nc1OC(c1cccnc1)C(F)(F)F)c1ccccc1Cl", "note": "(stereo not shown) [Compound 362, 2-chloro-N-{2-[2,2,2-trifluoro-1-(pyridin-3-yl)ethoxy]-pyrido[3,4-b]pyrazin-2-yl}benzenesulfonamide]", "values": [{"measurement": "IC50", "setting": "[5]", "result": "1000 to 10000", "unit": "nM"}]}
